# Reference: PubChem BioAssay (NCI)
# Where “and” joins values, the source holds several entries; their conditions need not be identical. Equal entries are not always repeated.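 Cultured in 96-well plates, cells were exposed to test compound for 48 hours across five concentrations. Here, GI50 denotes the concentration required for 50% inhibition of growth. TGI is the concentration that stops growth completely.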
# Columns and labels:
# Assay in all cases: inhibition of tumour cell growth, NCI panel, 48 h
# KM12 colon = test system: KM12 colon
# UO-31 renal = test system: UO-31 renal
# U251 CNS = test system: U251 CNS
# LOX IMVI melanoma = test system: LOX IMVI melanoma
# NCI-H226 lung = test system: NCI-H226 lung
# MDA-MB-435 = test system: MDA-MB-435
# M14 melanoma = test system: M14 melanoma
# OVCAR-4 ovarian = test system: OVCAR-4 ovarian
# NCI-H23 lung = test system: NCI-H23 lung
# HCT-15 colon = test system: HCT-15 colon
# SW-620 colon = test system: SW-620 colon
# IGROV1 ovarian = test system: IGROV1 ovarian
# SK-OV-3 ovarian = test system: SK-OV-3 ovarian
# UACC-257 melanoma = test system: UACC-257 melanoma
# UACC-62 melanoma = test system: UACC-62 melanoma
# RPMI-8226 leukemia = test system: RPMI-8226 leukemia
# A549 NSCLC = test system: A549 NSCLC
# PC-3 prostate = test system: PC-3 prostate
# K-562 leukemia = test system: K-562 leukemia
# NCI-H460 lung = test system: NCI-H460 lung
# NCI/ADR-RES ovarian = test system: NCI/ADR-RES ovarian
# COLO 205 colon = test system: COLO 205 colon
# SK-MEL-2 melanoma = test system: SK-MEL-2 melanoma
# HCC-2998 colon = test system: HCC-2998 colon
# OVCAR-8 ovarian = test system: OVCAR-8 ovarian
# HS 578T breast = test system: HS 578T breast
# CCRF-CEM leukemia = test system: CCRF-CEM leukemia
# HT29 colon = test system: HT29 colon
# BT-549 breast = test system: BT-549 breast
# MDA-MB-231 breast = test system: MDA-MB-231 breast
# MOLT-4 leukemia = test system: MOLT-4 leukemia
# OVCAR-3 ovarian = test system: OVCAR-3 ovarian
# SF-268 CNS = test system: SF-268 CNS
# SN12C renal = test system: SN12C renal
# DU-145 prostate = test system: DU-145 prostate
# T-47D breast = test system: T-47D breast
# MALME-3M melanoma = test system: MALME-3M melanoma
# SF-539 CNS = test system: SF-539 CNS
# HOP-92 NSCLC = test system: HOP-92 NSCLC
# SK-MEL-28 melanoma = test system: SK-MEL-28 melanoma
# SF-295 CNS = test system: SF-295 CNS
# TK-10 renal = test system: TK-10 renal
# HCT-116 colon = test system: HCT-116 colon
# HOP-62 NSCLC = test system: HOP-62 NSCLC
# HL-60(TB) leukemia = test system: HL-60(TB) leukemia
# RXF 393 renal = test system: RXF 393 renal
# NCI-H522 lung = test system: NCI-H522 lung
# CAKI-1 renal = test system: CAKI-1 renal
# SK-MEL-5 melanoma = test system: SK-MEL-5 melanoma
# MCF7 breast = test system: MCF7 breast
# OVCAR-5 ovarian = test system: OVCAR-5 ovarian
# A498 renal = test system: A498 renal
# 786-0 renal = test system: 786-0 renal
# SNB-19 CNS = test system: SNB-19 CNS
# SNB-75 CNS = test system: SNB-75 CNS
# ACHN renal = test system: ACHN renal
# EKVX NSCLC = test system: EKVX NSCLC
# SR leukemia = test system: SR leukemia
smiles,measurement,setting,value
CC1=CC(=O)C=CC1=O,GI50,KM12 colon,14.1 µM and 16.5 µM
same,TGI,KM12 colon,27.7 µM and 32.1 µM
same,GI50,UO-31 renal,12.7 µM and 4.8 µM
same,TGI,UO-31 renal,26 µM and 17.6 µM
same,GI50,U251 CNS,57.4 µM and 15.4 µM
same,TGI,U251 CNS,28.9 µM
same,GI50,LOX IMVI melanoma,17.9 µM and 14.4 µM
same,TGI,LOX IMVI melanoma,42.6 µM and 28 µM
same,GI50,NCI-H226 lung,20.4 µM and 33.1 µM
same,TGI,NCI-H226 lung,48.6 µM and 240 µM
same,GI50,MDA-MB-435,12.3 µM
same,TGI,MDA-MB-435,25.4 µM
same,GI50,M14 melanoma,22.7 µM and 20.5 µM
same,TGI,M14 melanoma,67.1 µM and 48.5 µM
same,GI50,OVCAR-4 ovarian,15.1 µM
same,TGI,OVCAR-4 ovarian,30.4 µM
same,GI50,NCI-H23 lung,26.6 µM and 20.5 µM
same,TGI,NCI-H23 lung,60 µM
same,GI50,HCT-15 colon,19.1 µM and 13.2 µM
same,TGI,HCT-15 colon,38 µM and 29 µM
same,GI50,SW-620 colon,5.31 µM
same,TGI,SW-620 colon,20.8 µM
same,GI50,IGROV1 ovarian,18.1 µM and 18.2 µM
same,TGI,IGROV1 ovarian,43 µM
same,GI50,SK-OV-3 ovarian,37.5 µM and 25.5 µM
same,TGI,SK-OV-3 ovarian,93.8 µM
same,GI50,UACC-257 melanoma,35.9 µM and 17.4 µM
same,TGI,UACC-257 melanoma,33.9 µM
same,GI50,UACC-62 melanoma,28.2 µM and 13.7 µM
same,TGI,UACC-62 melanoma,27.2 µM
same,GI50,RPMI-8226 leukemia,5.11 µM and 3.32 µM
same,TGI,RPMI-8226 leukemia,39.9 µM and 102 µM
same,GI50,A549 NSCLC,79.4 µM and 24.9 µM
same,TGI,A549 NSCLC,66.8 µM
same,GI50,PC-3 prostate,15.7 µM
same,TGI,PC-3 prostate,39.4 µM
same,GI50,K-562 leukemia,3 µM and 4.38 µM
same,GI50,NCI-H460 lung,32.8 µM and 22.3 µM
same,TGI,NCI-H460 lung,53.4 µM
same,GI50,NCI/ADR-RES ovarian,20.6 µM and 24 µM
same,TGI,NCI/ADR-RES ovarian,43 µM and 64.4 µM
same,GI50,COLO 205 colon,13.4 µM and 12.1 µM
same,TGI,COLO 205 colon,27.3 µM and 25 µM
same,GI50,SK-MEL-2 melanoma,50.7 µM and 23.8 µM
same,TGI,SK-MEL-2 melanoma,66.3 µM
same,GI50,HCC-2998 colon,13.2 µM and 18.6 µM
same,TGI,HCC-2998 colon,26.2 µM and 35.4 µM
same,GI50,OVCAR-8 ovarian,17.7 µM
same,TGI,OVCAR-8 ovarian,41.4 µM
same,GI50,HS 578T breast,14.4 µM and 24.9 µM
same,TGI,HS 578T breast,47.1 µM and 246 µM
same,GI50,CCRF-CEM leukemia,2.73 µM
same,TGI,CCRF-CEM leukemia,10.5 µM
same,GI50,HT29 colon,16.4 µM and 26.9 µM
same,TGI,HT29 colon,40.9 µM and 69.6 µM
same,GI50,BT-549 breast,16.2 µM and 14.9 µM
same,TGI,BT-549 breast,40 µM and 28.3 µM
same,GI50,MDA-MB-231 breast,16.2 µM
same,TGI,MDA-MB-231 breast,30.4 µM
same,GI50,MOLT-4 leukemia,3.29 µM and 3.22 µM
same,GI50,OVCAR-3 ovarian,3.96 µM
same,TGI,OVCAR-3 ovarian,13.3 µM
same,GI50,SF-268 CNS,16.5 µM
same,TGI,SF-268 CNS,31.2 µM
same,GI50,SN12C renal,28.7 µM
same,GI50,DU-145 prostate,17.3 µM and 17.8 µM
same,TGI,DU-145 prostate,31 µM and 32.4 µM
same,GI50,T-47D breast,11.9 µM and 2.54 µM
same,TGI,T-47D breast,36.1 µM and 6.78 µM
same,GI50,MALME-3M melanoma,13.1 µM and 13.7 µM
same,TGI,MALME-3M melanoma,29.7 µM and 27.8 µM
same,GI50,SF-539 CNS,29.3 µM and 17 µM
same,TGI,SF-539 CNS,31.4 µM
same,GI50,HOP-92 NSCLC,16.7 µM
same,TGI,HOP-92 NSCLC,33.4 µM
same,GI50,SK-MEL-28 melanoma,16.9 µM and 17.9 µM
same,TGI,SK-MEL-28 melanoma,30.8 µM and 32.6 µM
same,GI50,SF-295 CNS,50.3 µM and 22.7 µM
same,TGI,SF-295 CNS,64.3 µM
same,GI50,TK-10 renal,20.8 µM and 16.9 µM
same,TGI,TK-10 renal,36.4 µM and 30.7 µM
same,GI50,HCT-116 colon,14.8 µM and 2.97 µM
same,TGI,HCT-116 colon,29.8 µM
same,GI50,HOP-62 NSCLC,35.9 µM and 25.3 µM
same,TGI,HOP-62 NSCLC,75.3 µM
same,GI50,HL-60(TB) leukemia,2.37 µM and 3.51 µM
same,GI50,RXF 393 renal,16.8 µM and 12.1 µM
same,TGI,RXF 393 renal,31.5 µM and 27.4 µM
same,GI50,NCI-H522 lung,11.2 µM and 1.67 µM
same,TGI,NCI-H522 lung,24 µM and 4.1 µM
same,GI50,CAKI-1 renal,15.1 µM and 15.3 µM
same,TGI,CAKI-1 renal,28.4 µM and 29.8 µM
same,GI50,SK-MEL-5 melanoma,29.3 µM and 13.4 µM
same,TGI,SK-MEL-5 melanoma,26.3 µM
same,GI50,MCF7 breast,14.7 µM and 15.4 µM
same,TGI,MCF7 breast,34.5 µM and 41.4 µM
same,GI50,OVCAR-5 ovarian,21.4 µM
same,TGI,OVCAR-5 ovarian,39.5 µM
same,GI50,A498 renal,30.6 µM and 51.5 µM
same,TGI,A498 renal,96 µM and 144 µM
same,GI50,786-0 renal,19.3 µM and 19.1 µM
same,TGI,786-0 renal,33.8 µM and 34.2 µM
same,GI50,SNB-19 CNS,36.1 µM
same,TGI,SNB-19 CNS,89.4 µM
same,GI50,SNB-75 CNS,3.02 µM and 11.5 µM
same,TGI,SNB-75 CNS,24.8 µM
same,GI50,ACHN renal,15.9 µM and 2.94 µM
same,TGI,ACHN renal,29.4 µM and 10.1 µM
same,GI50,EKVX NSCLC,17 µM
same,TGI,EKVX NSCLC,39.6 µM
same,GI50,SR leukemia,1.63 µM and 9.34 µM
